# Paper PMC3263710, “Synthesis and Inhibiting Activity of Some 4-Hydroxycoumarin Derivatives on HIV-1 Protease” (ISRN Pharmaceutics, 2011)
# Non-standard residues stand in square brackets, D forms with d. Residues, ends and D or L forms follow the SMILES beside them. *: point of attachment. Sta = CC(C)C[C@H](N)[C@@H](O)CC(=O)O; Isovaleryl = CC(C)CC(=O)*
# What was measured:
# [1] = system: HIV-1 III B; test: Microtiter infection assay, protection of MT-4 cells from HIV cytopathic effect (MTT); type: cell-based; conditions: for Infection assay MTT- % cell survival / inhibition of virus infectivity / viral replication in MT-4 cells: HIV-1-infected MT-4 cells; for Infection assay MTT- % cell survival: compound at MNC, 72–96 hours
# Protocol: The evaluation of anti-HIV effect was done by an in vitro rapid and sensitive microtiter infection assay based on cytolysis quantitation by vital dye (MTT) uptake as an endpoint for infection. Additionally, the effect of inhibitors on endogenous reverse transcriptase (RT) activity of HIV-1 III B-infected MT-4 supernatants was considered as a marker for the ability of blocking HIV-1 replication. MT-4 cells were infected and incubated with each inhibitor for 72–96 hours, and then RT activity was measured in the cell supernatants according to guidelines in the HS-Lenti Kit-RT assay (Cavidi, Sweden). A study of direct effect of the newly synthesized 4-hydroxycoumarins on exogenous recombinant RT (rRT) was also performed. Further, all the compounds were tested for anti-HIV-1 PR activity. Table 3 represents the results of microtiter infection assay using MTT and inhibition of HIV-1 PR activity. The experiments were carried out in maximal nontoxic concentration (MNC) for each compound.
# MT-4—a human lymphoblastoid suspension cell line, kindly provided by Gianfranco Pancino— Institute Pasteur, (Unite de Regulation des Infections Retrovirales, Paris, France) represent a classical model for experimental productive infection with HIV-1 III B strain and used as a routine target for study of effect of putative HIV inhibitors in cell culture.
# As a source of HIV-1, supernatants of H9/HTLV III B line—a gift from Dr. R. Gallo (NIH, USA)— were used. Supernatants were collected and centrifuged to remove the cells, and virus stocks were prepared with known p24 antigen content (460 pg/mL, Murex HIV Antigen mAB test), RT activity (565.3 pg RT/mL, HS-Lenti RT Activity Kit, Cavidi, Sweden), and infectivity (2 × 10^6 infectious virions/mL, microtiter infection assay). MT-4 and H9/HTLV III B cells were grown in RPMI 1640 supplemented with 10% FCS (invitrogen).
# (§1) The following parameters were studied: cytotoxic concentration 50—CC50, where possible (the concentration preventing death of 50% of MT-2 cells), maximal nontoxic concentration—MNC, and inhibitory concentration 50-IC50 (concentration inhibiting by 50% the viral replication). CC50 and MNC were detected by MTT uptake assay. IC50 was studied on MT-4 cells by microtiter infection assay exploring the protection of cells from the cytopathic effect of HIV measured by MTT test. Experiments under conditions of acute infection were performed in 96-well microplates with 6–8 parallels/experiment. Cell controls (MT-4 cells with medium only) and viral controls (virus infected MT-4 cells) were run with each experiment. For antivirus assays, HIV was added to each well to obtain multiplicity of infection 0.1 except the cell controls. Virus attachment was allowed for an hour at 37°C/5% CO2. The plates were incubated for 72–96 hours at 37°C/5% CO2. After that, MTT test was performed as described and absorbance of viable cells was measured colorimetrically at A540 nm. […] For antiviral assays, the mean values of experimental and control rows were compared and the percentage of cells protected (cell survival) under the appropriate concentration of the substance was plotted against the concentration of the substance to obtain IC50. The cell survival (% of cell protection) was calculated according to the following formula:
# (1) % cell protection =A540X−A540 Control HIV/ A540 Cell Control−A540 Control HIV ×100, where X is the mean value of A540 of HIV-infected cells treated with appropriate concentration of the compound under study; control HIV is the mean value of A540 of HIV-infected cells without any compound added; cell control is the mean value of A540 of uninfected and untreated with inhibitor cells.
# [2] = system: MT-4 cells; test: Cytotoxicity by MTT uptake assay (maximal nontoxic concentration); type: cell-based; conditions: for maximal nontoxic concentration (MNC): MTT uptake assay; for maximal nontoxic concentration (MNC) / maximal nontoxic concentration (MNC), concentration tested: Table 3; for maximal nontoxic concentration (MNC), concentration tested: reference inhibitors
# Protocol: The compounds under study were first dissolved in DMSO and further diluted in cell growth medium without fetal serum. All the solutions were prepared ex tempore.
# as §1, with “CC50” for “The following parameters were studied: cytotoxic concentration 50—CC50, where possible (the concentration preventing death of 50% of MT-2 cells), maximal nontoxic concentration—MNC, and inhibitory concentration 50-IC50 (concentration inhibiting by 50% the viral replication). CC50”, “formula: […]” for “formula:”
# [3] = target: T1, native HIV-1 protease (Human immunodeficiency virus type 1 group M subtype B, UniProt P04585); test: Antiprotease activity using native viral PR, spectrophotometric substrate utilization; type: biochemical; conditions: compound at MNC
# T1 construct: The lysis of viral particles and releasing of the active enzyme (protease) was performed using disrupting (lysis) buffer; endogenous in cells; host or cells: Virions from supernatants of chronically infected H9/HTLV IIIB cells, concentrated 50x and lysed with Triton X-100
# Protocol: A method described earlier by Broglia et al., 2006 [19], for detection of recombinant protease activity was modified to use native viral protease. As a source of native HIV-1 protease, again suspension of concentrated viral stock (50x) from chronically infected H9/HTLV IIIB cell supernatants was used. The lysis of viral particles and releasing of the active enzyme (protease) was performed using disrupting (lysis) buffer containing 2.5% Triton X-100 in phosphate buffer. The concentration of the tissue culture fluid containing the virus was done by ultracentrifugation in Biofuge Stratos, Heraeus, for 1 hour, at 4°C and 35000 rev/min. The pellet was resuspended to obtain 50x concentrate in disrupting buffer.
# The following reaction mixture was prepared for each experiment : 1000 μL phosphate buffer (20 mM, pH 6.0); 20 μL HIV protease substrate III ([…], 760 μM; Bachem, Switzerland) in DMSO, prepared ex tempore; 20 μL enzyme (stock HIV) taken from a solution containing 25 μL disrupting (lysis) buffer + 100 μL HIV-stock, incubated 40 min at 37°C prior to experiment.
# The HIV-1 PR activity was measured using direct spectrophotometric reading of the enzyme reaction substrate utilization at 300 nm, at room temperature and 1 cm pathlength, using T80 + UV-Vis spectrophotometer (PG instruments). The initial reaction velocity (V0) was adjusted to be 0.0020–0.0030 ΔAbs/min by varying the enzyme activity (viral concentration). The tested compound and the reference inhibitor (pepstatin used here) was added to the reaction mixture prior to enzyme, in order to perform the screening for inhibitory effect. IC50 was defined as the concentration of the compound tested that decreases the velocity of the reaction by 50% of the initial velocity without tested (reference) compound.
# [4] = system: HIV-1 protease; set-up: method as in PMID 8185622; conditions: binding activity of the experimental ligands on HIV-1 protease; cited from earlier work
Compound,Infection assay MTT- % cell survival [1] [%],maximal nontoxic concentration (MNC) [2],% Inhibition of HIV-1 protease activity [3] [%],IC50 [4] [µM],also measured
"CCOC(=O)C(C(C)=O)C(c1ccc(O)cc1)c1c(O)c2ccccc2oc1=O (stereo not shown) [(9), Ethyl 2-[(4-Hydroxy-2-Oxo-2H-Chromen-3-yl)(4-Hydroxyphenyl)Methyl]-3-Oxobutanoate]",0,(9) (0.0001) μM,0,,
"CCOC(=O)C(C(C)=O)C(c1ccc(C(=O)O)cc1)c1c(O)c2ccccc2oc1=O (stereo not shown) [(11), 4-[1-(4-Hydroxy-2-Oxo-2H-Chromen-3-yl)-2-(Ethoxycarbonyl)-3-Oxobutyl]Benzoic Acid]",0,(11) (0.0001) μM,0,,
4-hydroxy-3-(3-oxo-1-phenylbutyl)-2H-chromen-2-one [Ligand (5)],,,,18,
"CCOC(=O)C(C(C)=O)C(c1ccc(O)c(O)c1)c1c(O)c2ccccc2oc1=O (stereo not shown) [(10), Ethyl 2-[(3,4-Dihydroxyphenyl)(4-Hydroxy-2-Oxo-2H-Chromen-3-yl)Methyl]-3-Oxobuta-Noate]",30,(10) (0.0001) μM,16,,inhibition of virus infectivity / viral replication in MT-4 cells [1]: inhibited viral replication
4-hydroxy-3-(1-phenoxypropyl)-2H-chromen-2-one [Ligand (1)],,,,2.7,
"3-(3,4-dimethoxybenzyl)-4-hydroxy-8-methyl-2H-chromen-2-one [Ligand (3)]",,,,23,
"Nc1nc(NC2CC2)c2ncn([C@H]3C=C[C@@H](CO)C3)c2n1 [Abacavir, reference compound]",98,,,,"maximal nontoxic concentration (MNC), concentration tested [2]: Abacavir® (35 × 10^−6 M)"
"3-(3,4-dimethoxybenzyl)-4-hydroxy-2H-chromen-2-one [Ligand (2)]",,,,84,
"CCOC(=O)C(C(C)=O)C(c1cccc([N+](=O)[O-])c1)c1c(O)c2ccccc2oc1=O (stereo not shown) [Compound (7), Ethyl 2-[(4-Hydroxy-2-Oxo-2H-Chromen-3-yl)(3-Nitrophenyl)Methyl]-3-Oxobutanoate]",78,(7) (0.001) μM,25,,"inhibition of virus infectivity / viral replication in MT-4 cells [1]: 76–78%; IC50 ([1]; Human immunodeficiency virus 1, MT4, read-out: IC50 (concentration inhibiting by 50% the viral replication)): 0.01 nM; maximal nontoxic concentration ([2]; as stated in abstract): 1 mM"
"CC(C)CC(=O)N[C@H](C(=O)N[C@H](C(=O)N[C@@H](CC(C)C)[C@@H](O)CC(=O)N[C@@H](C)C(=O)N[C@@H](CC(C)C)[C@@H](O)CC(=O)O)C(C)C)C(C)C [Pepstatin, pepstatin, reference compound] (Isovaleryl-VV[Sta]A[Sta]-OH)",,,100,,"maximal nontoxic concentration (MNC), concentration tested [2]: Pepstatin® (4.5 × 10^−5 M)"
"CC(=O)C(C(C)=O)C(c1ccc(O)cc1)c1c(O)c2ccccc2oc1=O (stereo not shown) [(12), 3-[(4-Hydroxy-2-Oxo-2H-Chromen-3-yl)(4-Hydroxyphenyl)Methyl]Pentane-2,4-Dione]",0,(12) (0.001) μM,0,,
3-benzyl-4-hydroxy-8-phenyl-2H-chromen-2-one [Ligand (4)],,,,8.1,
"CCOC(=O)C(C(C)=O)C(c1ccc([N+](=O)[O-])cc1)c1c(O)c2ccccc2oc1=O (stereo not shown) [(8), Ethyl 2-[(4-Hydroxy-2-Oxo-2H-Chromen-3-yl)(4-Nitrophenyl)Methyl]-3-Oxobutanoate]",0,(8) (0.001) μM,0,,
